Measurements as given in patent US6902881B2, “Compounds and methods for regulating cell differentiation” (priority 2000, dated 2005).

Legend:
HT 29 Cancer Cells = assay: Distribution of cell cycle stages of HT 29 cancer cells; format: cell-based, human
Source text: The presence of the CDK-inhibitors leads to under phosphorylation of Rb protein. As a consequence, the cells are removed from cycling and the number of cells in G1 increases while those in S and G2 decrease, compared with control, untreated ones. This response of cell cycle kinetics is quite similar to those reported for other agents known to cause a G1, block e.g. troglitazone. Ultimately, proliferation ceases within one to three days. […] This decreased rate persists even after the tetrapyrrole is no longer added to the incubation medium. Finally, twelve days after its removal, proliferation resumes at a brisker rate dividing every 41 hrs. This rate is still slower than that of the control cells that double every 18 hrs. […] In contrast, cellular survival or proliferation is not affected by amounts lower than 10^−7 M biliverdin (not shown).

[1] = system: Colon Adenocarcinoma (HT 29) cells; assay: Cellular triacyl glycerol (TAG) content, colon adenocarcinoma; format: cell-based, human; conditions: biliverdin 4 × 10^−7 M
Procedure: (§1) Expression of differentiation markers. Carcinoembryogenic antigen in cell supernatants collected each three days was assayed by standard ELISA determinations using an IMX assay for quantitative measurement of the antigen. Cellular triacyl glycerol content was measured spectrophotometrically by enzymatic hydrolysis and analysis of the amount of glycerol released using a standard assay, Triglyceride (INT) 10 (Sigma Diagnostics). Cellular alkaline phosphatase activity was determined by measuring the fluorescence change induced by the hydrolysis of 4-methylumbelliferylphosphate. The fluorescence is detected at 450 nm with an excitation of 365 nm, using a Jobin Ivon-Spex Fluoro Max-2 fluorimeter. The alkaline phosphatase activity detected was expressed in units of μmol/mg protein/min.

[2] = system: CEA content of HT 29 colon cancer cells; assay: CEA production by HT 29 cells (ELISA/IMx); format: cell-based, human
Procedure: as §1
The effects of biliverdine on cell proliferation and production of two differentiation markers, CEA and alkaline phosphatase activity, were analyzed, CEA was assayed by standard ELISA determinations while alkaline phosphatase activity was determined by measuring the fluorescence change induced by the hydrolysis of phosphate from 4-methylumbelliferylphosphate as follows. To measure CEA production, cell supernatants were collected at the first cycle of change of media (third day) and on day 12. […] This was diluted 1:1 and assayed for CEA using an Imx assay for quantitive measurement of the antigen. […]

liposarcoma (LS) cells = assay: Proliferation of liposarcoma cells; format: cell-based, human
HT29 colon cancer cells = assay: Cellular proliferation and viability of HT29 colon cancer cells; format: cell-based, human
Procedure: Cell Culture Conditions. Human HT 29 colon cancer cells were purchased from the American Type Culture Collection. Cells were maintained in Dulbecco's Modified Eagle's Medium (DME) supplemented with 5% heat-inactivated fetal bovine serum, 2 mM glutamine, and antibiotics (DME/5%). All cell lines were incubated in a humidified 5% CO2/air environment. They were maintained at 37° C. in 5% CO2 covered in aluminum foil to prevent exposure to the light. A total of 1×10^6 cells were incubated per flask and allowed to attach overnight. Media was changed every third day. Cell counts were performed on a Coulter Counter following detachment of cells by standard trypsinization procedures. […] The period of exposure was followed by incubation in the absence of biliverdine. Cell numbers were monitored until proliferation resumed. The production of CEA and alkaline phosphatase was measured as described below.
The HT29 colon cancer cells were incubated with different concentrations of biliverdine and their response studied to identify the concentration ranges required to elicit a biological and/or a toxicological response (Table III).

[3] = system: retinoid signaling system (RAR or RXR); assay: Use of the retinoid signaling system

Q: Which “cells in G2” value (HT 29 Cancer Cells; control 11) does the source give for `C=CC1=C(C)/C(=C/C2=NC(=C\c3[nH]c(/C=C4\NC(=O)C(C)=C4C=C)c(C)c3CCC(=O)O)/C(CCC(=O)O)=C2C)NC1=O` [Biliverdin, biliverdin IXα] here?
A: 7%

Q: And the “cells in G1” value (HT 29 Cancer Cells; control 42)?
A: 63%

Q: And the “cells in S” value (HT 29 Cancer Cells; control 47)?
A: 30%

Q: What about the “% Change of TAG” value [1] of the same compound?
A: 154%

Q: What about the TAG ([1]; control 68) of the same compound?
A: 105 µg/10^6 cells

Q: What about the “CEA secreted into the medium” value ([2]; HT 29, by days 9-12 of exposure, constitutive slightly below 3) of the same compound?
A: over 80 ng/ml/10^6 cells

Q: And the “overproduction of the differentiation marker CEA” value ([2]; HT 29, quiescent proliferative period days 3-40)?
A: > 25 fold

Q: And the “day after which division resumes at markedly reduced rate” value (liposarcoma (LS) cells)?
A: > 3 days

Q: What about the “division slower than control” value (liposarcoma (LS) cells) of the same compound?
A: 3.3 times

Q: What about the “time until proliferation ceases” value (liposarcoma (LS) cells) of the same compound?
A: within one day

Q: What about the “amount that does not affect cellular survival or proliferation” value (HT29 colon cancer cells; HT29) of the same compound?
A: lower than 10^−7 M

Q: What about the “concentration that causes apoptosis” value (HT29 colon cancer cells; HT29) of the same compound?
A: ≥ 1000 nM

Q: And the “concentration with no effect on survival or proliferation” value (HT29 colon cancer cells; HT29)?
A: below 0.1 μM

Q: And the “Effect on cellular proliferation and viability” value (HT29 colon cancer cells; HT29, 0.01 μM)?
A: None

Q: What about the “Effect on cellular proliferation and viability” value (HT29 colon cancer cells; HT29, 0.1 μM) of the same compound?
A: Proliferative Arrest

Q: What about the “Effect on cellular proliferation and viability” value (HT29 colon cancer cells; HT29, 0.30 μM) of the same compound?
A: Proliferative Arrest

Q: And the “Effect on cellular proliferation and viability” value (HT29 colon cancer cells; HT29, 0.40 μM)?
A: Proliferative Arrest

Q: What about the “Effect on cellular proliferation and viability” value (HT29 colon cancer cells; HT29, 1.00 μM) of the same compound?
A: Apoptosis

Q: What about the effect on proliferation (HT29 colon cancer cells; HT29, 5 μM, associated decrease of cell numbers in first three days) of the same compound?
A: arrests proliferation

Q: What about the “time until proliferative arrest” value (HT29 colon cancer cells; HT29, 0.1 to 0.4 μM) of the same compound?
A: ≤ 72 h

Q: What about the “doubling time during exposure” value (HT29 colon cancer cells; HT29, 4×10^−7 M, next 35 days after arrest) of the same compound?
A: 103 h

Q: What about the “time of exposure until proliferation is arrested” value (HT29 colon cancer cells; HT29, FIG. 9) of the same compound?
A: ≤ 1 days

Q: And the “proliferation rate after resumption, fold less than control” value (HT29 colon cancer cells; HT29, after end of exposure)?
A: 2-3 fold

Q: And the “reduction of three-day cell number increase compared to controls” value (HT29 colon cancer cells; HT29, treated and released cells)?
A: five-fold reduction

Q: What about the “increase of cell number in a three-day period” value (HT29 colon cancer cells; HT29, treated and released cells, control about 15 times) of the same compound?
A: 3.4 times

Q: And the “proliferation rate after resumption, relative to control” value (HT29 colon cancer cells; HT29, treatment discontinued day 30, resumption twelve days later)?
A: 43%

Q: And the “doubling time after removal of biliverdin” value (HT29 colon cancer cells; HT29, twelve days after removal, control 18 hrs)?
A: 41 h

Q: And the “use of the retinoid signaling system (RAR or RXR)” value [3]?
A: does not use
